Measurements published in paper PMC5676022, “Pyrrolyl Pyrazoline Carbaldehydes as Enoyl-ACP Reductase Inhibitors: Design, Synthesis and Antitubercular Activity” (The Open Medicinal Chemistry Journal, 2017).
In brackets after ≈: the same amount, converted by molar mass.

What was measured:
M. tuberculosis H37Rv = experiment: Microplate alamar blue assay (MABA), antitubercular activity; assay type: cell-based, Mycobacterium tuberculosis; settings: 5 days at 37 C, lowest concentration preventing colour change blue to pink; for MIC: Mycobacterium tuberculosis, H37RV, 120 h
[1] = system: human lung cancer cell line A549; experiment: MTT-based cytotoxicity assay; assay type: cell-based; settings: for cytotoxicity towards A549 (in words): A549, up to 100 µg/mL, compared to paclitaxel; for IC50: Homo sapiens, A549, MTT, up to 100 µg/mL, average of three independent experiments
Description: Cellular conversion of MTT [3-(4,5-dimethylthiazo-2-yl)-2,5-diphenyl-tetrazolium bromide] into a formazan product was used to estimate cytotoxic activity (IC50) of some of the compounds against cell-line A549 (lung adenocarcinoma) up to concentrations of 100 µg/mL using 5×10^3cells/well in a 96-well flat-bottom micro plate and maintained at 37 °C in 95% humidity and 5% CO2 for overnight using paclitaxel as the positive control.
Certain therapeutic properties are to be determined to examine the antimycobacterial potential of a drug. Toxicity is one of these criteria.

Row | Compound | melting point | MIC (M. tuberculosis H37Rv) | cytotoxicity towards A549 (in words) [1] | IC50 [1] | MIC values M. tuberculosis H37Rv (M. tuberculosis H37Rv)
1 | O=CN1N=C(c2ccc(-n3cccc3)cc2)CC1c1ccccc1 (stereo not shown) [Compound 4a, 3-(4-(1H-Pyrrol-1-yl) Phenyl)-5-Phenyl-4,5-Dihydro-1H-Pyrazole-1-Carbaldehydes] | 178 to 180 °C | 100 µg/mL (≈ 317 µM) |  |  | 
2 | O=CN1N=C(c2ccc(-n3cccc3)cc2)CC1c1ccc(Cl)cc1 (stereo not shown) [Compound 4b, (4-(1H-Pyrrol-1-yl) Phenyl)-5-(4-Chlorophenyl)-4,5-Dihydro-1H-Pyrazole-1-Carbaldehyde] | 168 to 170 °C | 12.5 µg/mL (≈ 35.7 µM) | moderate cytotoxicity | 75.6 µg/mL (≈ 216 µM) | 
3 | O=CN1N=C(c2ccc(-n3cccc3)cc2)CC1c1cccc(Cl)c1Cl (stereo not shown) [Compound 4c, (4-(1H-pyrrol-1-yl)phenyl)-5-(2,3-Dichlorophenyl)-4,5-Dihydro-1H-Pyrazole-1-Carbaldehyde] | 163 to 165 °C | 12.5 µg/mL (≈ 32.5 µM) |  |  | 
4 | O=CN1N=C(c2ccc(-n3cccc3)cc2)CC1c1ccc(Cl)cc1Cl (stereo not shown) [Compound 4d, (4-(1H-pyrrol-1-yl)Phenyl)-5-(2,4-Dichlorophenyl)-4,5-Dihydro-1H-Pyrazole-1-Carbaldehyde] | 228 to 230 °C | 25 µg/mL (≈ 65.1 µM) |  |  | 
5 | O=CN1N=C(c2ccc(-n3cccc3)cc2)CC1c1c(Cl)cccc1Cl (stereo not shown) [Compound 4e, (4-(1H-pyrrol-1-yl)Phenyl)-5-(2,6-Dichlorophenyl)-4,5-Dihydro-1H-Pyrazole-1-Carbaldehyde] | 208 to 210 °C | 25 µg/mL (≈ 65.1 µM) |  |  | 
6 | Cc1ccc(C2CC(c3ccc(-n4cccc4)cc3)=NN2C=O)cc1 (stereo not shown) [Compound 4f, (4-(1H-pyrrol-1-yl)Phenyl)-5-(p-Tolyl)-4,5-Dihydro-1H-Pyrazole-1-Carbaldehyde] | 148 to 150 °C | 25 µg/mL (≈ 75.9 µM) |  |  | 
7 | COc1ccc(C2CC(c3ccc(-n4cccc4)cc3)=NN2C=O)cc1 (stereo not shown) [Compound 4g, (4-(1H-pyrrol-1-yl)phenyl)-5-(4-Methoxyphenyl)-4,5-Dihydro-1H-Pyrazole-1-Carbaldehyde] | 112 to 114 °C | 6.25 µg/mL (≈ 18.1 µM) |  |  | 6.25 µg/mL (≈ 18.1 µM)
8 | COc1cccc(C2CC(c3ccc(-n4cccc4)cc3)=NN2C=O)c1 (stereo not shown) [Compound 4h, (4-(1H-Pyrrol-1-yl)Phenyl)-5-(3-Methoxyphenyl)-4,5-Dihydro-1H-Pyrazole-1-Carbaldehyde] | 158 to 160 °C | 6.25 µg/mL (≈ 18.1 µM) | moderate cytotoxicity | 76.5 µg/mL (≈ 222 µM) | 6.25 µg/mL (≈ 18.1 µM)
9 | COc1ccc(C2CC(c3ccc(-n4cccc4)cc3)=NN2C=O)c(OC)c1 (stereo not shown) [Compound 4i, (4-(1H-Pyrrol-1-yl)Phenyl)-5-(2,4-Dimethoxyphenyl)-4,5-Dihydro-1H-Pyrazole-1-Carbaldehyde] | 160 to 162 °C | 3.12 µg/mL (≈ 8.32 µM) | moderate cytotoxicity | 73.3 µg/mL (≈ 195 µM) | 3.125 µg/mL (≈ 8.32 µM)
10 | COc1ccc(C2CC(c3ccc(-n4cccc4)cc3)=NN2C=O)cc1OC (stereo not shown) [Compound 4j, (4-(1H-Pyrrol-1-yl) Phenyl)-5-(3,4-Dimethoxyphenyl)-4,5-Dihydro-1H-Pyrazole-1-Carbaldehyde] | 133 to 135 °C | 12.5 µg/mL (≈ 33.3 µM) | moderate cytotoxicity | 70.4 µg/mL (≈ 187 µM) | 
11 | O=CN1N=C(c2ccc(-n3cccc3)cc2)CC1c1ccc(F)cc1 (stereo not shown) [Compound 4k, (4-(1H-Pyrrol-1-yl)phenyl)-5-(4-Fluorophenyl)-4,5-Dihydro-1H-Pyrazole-1-Carbaldehyde] |  | 12.5 µg/mL (≈ 37.5 µM) |  |  | 
12 | CC(C)c1ccc(C2CC(c3ccc(-n4cccc4)cc3)=NN2C=O)cc1 (stereo not shown) [Compound 4l, (4-(1H-Pyrrol-1-yl)Phenyl)-5-(4-Isopropylphenyl)-4,5-Dihydro-1H-Pyrazole-1-Carbaldehyde] | 140 to 142 °C | 100 µg/mL (≈ 280 µM) | moderate cytotoxicity | 71.1 µg/mL (≈ 199 µM) | 
13 | O=CN1N=C(c2ccc(-n3cccc3)cc2)CC1c1cccc(Br)c1 (stereo not shown) [Compound 4m, (4-(1H-Pyrrol-1-yl)Phenyl)-5-(3-Bromophenyl)-4,5-Dihydro-1H-Pyrazole-1-Carbaldehyde] | 168 to 170 °C | 12.5 µg/mL (≈ 31.7 µM) | moderate cytotoxicity | 76 µg/mL (≈ 193 µM) | 
14 | O=CN1N=C(c2ccc(-n3cccc3)cc2)CC1c1cccc(Oc2ccccc2)c1 (stereo not shown) [Compound 4n, (4-(1H-pyrrol-1-yl)Phenyl)-5-(3-Phenoxyphenyl)-4,5-Dihydro-1H-Pyrazole-1-Carbaldehyde] | 128 to 130 °C | 12.5 µg/mL (≈ 30.7 µM) | moderate cytotoxicity | 72.9 µg/mL (≈ 179 µM) | 
15 | O=CN1N=C(c2ccc(-n3cccc3)cc2)CC1c1ccco1 (stereo not shown) [Compound 4o, (4-(1H-Pyrrol-1-yl)phenyl)-5-(Furan-2-yl)-4,5-Dihydro-1H-pyrazole-1-Carbaldehyde] | 152 to 154 °C | 50 µg/mL (≈ 164 µM) |  |  | 
16 | CC(=O)O[C@H]1C(=O)[C@@]2(C)[C@H]([C@H](OC(=O)c3ccccc3)[C@]3(O)C[C@H](OC(=O)[C@H](O)[C@@H](NC(=O)c4ccccc4)c4ccccc4)C(C)=C1C3(C)C)[C@]1(OC(C)=O)CO[C@@H]1C[C@@H]2O [paclitaxel, reference compound] |  |  |  | 47.6 µg/mL (≈ 55.8 µM) | 
17 | NC(=O)c1cnccn1 [pyrazinamide, reference compound] |  | 3.12 µg/mL (≈ 25.4 µM) |  |  | 
18 | [H]/N=C(/N)N[C@H]1[C@H](O)[C@@H](O)[C@H](O[C@@H]2O[C@@H](C)[C@](O)(C=O)[C@H]2O[C@@H]2O[C@@H](CO)[C@H](O)[C@@H](O)[C@@H]2NC)[C@@H](N/C(N)=N\[H])[C@@H]1O [streptomycin, reference compound] |  | 6.25 µg/mL (≈ 10.7 µM) |  |  | 
